How the values were obtained:
Assay in all cases: relative viability (nuclei count vs DMSO), 5 days (fraction); higher = more cells survive
kb NB 142-70 + Dasatinib = compound: C1CSC2=C(C(=O)N1)SC3=C2C=C(C=C3)O [kb NB 142-70] + Cc1nc(Nc2ncc(C(=O)Nc3c(C)cccc3Cl)s2)cc(N2CCN(CCO)CC2)n1 [Dasatinib] (partner 0.075 µM)
Summary of the method: (§1)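 Relative viability is defined as nuclei in treated wells over nuclei in vehicle wells. Duplicate plates were run and medians reported. Lung cancer cell lines in 1536-well plates were dosed by pin tool one day after seeding, with one drug or with a fixed anchor-drug dose plus five library-drug doses (not always all listed) in √10 steps, and nuclei were counted after 5 days.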

[1] = compound: NCC(=O)Nc1ccc(-n2nc(C(F)(F)F)cc2-c2ccc3c(ccc4ccccc43)c2)cc1 + COc1cccc2cc(-c3nc([C@H]4CC[C@H](C(=O)O)CC4)n4ncnc(N)c34)[nH]c12 [OSI-027] (partner 0.5 µM)
Summary of the method: as §1

[2] = compound: NCC(=O)Nc1ccc(-n2nc(C(F)(F)F)cc2-c2ccc3c(ccc4ccccc43)c2)cc1 + Cc1nc(NC(=O)N2CCC[C@H]2C(N)=O)sc1-c1ccnc(C(C)(C)C(F)(F)F)c1 [Alpelisib] (partner 2 µM)
Summary of the method: as §1

[3] = compound: NCC(=O)Nc1ccc(-n2nc(C(F)(F)F)cc2-c2ccc3c(ccc4ccccc43)c2)cc1 + O=C(CCCCCCC(=O)Nc1ccccc1)NO [Vorinostat] (partner 1 µM)
Summary of the method: as §1

Row | Cell Line | relative viability (kb NB 142-70 + Dasatinib; first compound 0.1 µM) | relative viability (kb NB 142-70 + Dasatinib; first compound 1 µM) | relative viability (kb NB 142-70 + Dasatinib; first compound 3.162 µM) | relative viability ([1]; first compound 0.02 µM) | relative viability ([1]; first compound 0.06325 µM) | relative viability ([1]; first compound 0.2 µM) | relative viability ([1]; first compound 0.6325 µM) | relative viability ([1]; first compound 2 µM) | relative viability ([2]; first compound 0.02 µM) | relative viability ([2]; first compound 0.06325 µM) | relative viability ([2]; first compound 0.2 µM) | relative viability ([2]; first compound 0.6325 µM) | relative viability ([2]; first compound 2 µM) | relative viability ([3]; first compound 0.02 µM) | relative viability ([3]; first compound 0.06325 µM) | relative viability ([3]; first compound 0.2 µM) | relative viability ([3]; first compound 0.6325 µM) | relative viability ([3]; first compound 2 µM)
1 | EKVX | 0.559 | 0.289 | 0.729 | 0.729 | 0.646 | 0.673 | 0.674 | 0.737 | 0.939 | 0.809 | 0.924 | 0.927 | 1.01 | 0.726 | 0.83 | 0.751 | 0.724 | 0.731
2 | NCI-H358 | 0.15 | 0.109 | 0.127 | 0.749 | 0.842 | 0.84 | 0.711 | 0.834 | 0.82 | 0.881 | 0.931 | 0.821 | 0.939 | 0.735 | 0.728 | 0.694 | 0.768 | 0.653
3 | EPLC-272H | 0.417 | 0.34 | 0.149 | 0.307 | 0.246 | 0.28 | 0.311 | 0.274 | 1.06 | 0.916 | 0.917 | 1.05 | 0.936 | 0.354 | 0.538 | 0.491 | 0.573 | 0.501
4 | NCI-H1395 | 0.393 | 0.443 | 0.43 | 0.709 | 0.688 | 0.693 | 0.642 | 0.686 | 1.04 | 1.1 | 1.3 | 1.13 | 1.05 | 0.761 | 0.82 | 0.686 | 0.646 | 0.924
5 | NCI-H2126 | 0.622 | 0.558 | 0.537 | 0.773 | 0.753 | 0.726 | 0.741 | 0.631 | 0.784 | 0.774 | 0.724 | 0.765 | 0.788 | 0.78 | 0.858 | 0.768 | 0.756 | 0.773
6 | LXF-289 | 0.212 | 0.215 | 0.21 | 0.67 | 0.801 | 0.787 | 0.819 | 0.713 | 1.08 | 1.08 | 1.09 | 1.06 | 1.01 | 0.737 | 0.91 | 0.777 | 0.731 | 0.787
7 | NCI-H2009 | 0.321 | 0.284 | 0.155 | 0.573 | 0.613 | 0.703 | 0.604 | 0.609 | 1.21 | 1.11 | 1.19 | 1.1 | 1.16 | 0.698 | 0.741 | 0.792 | 0.805 | 0.766

From the supplement of paper PMC10307832
